Test [1] addresses T1, casein kinase 2 α′ subunit (CK2α′) (Homo sapiens, UniProt P19784).
T1 construct: gene CSNK2A2; human recombinant CK2α′ protein
The experiment in a line: ITC ([…]); also SPR KD […], NanoDSF, CETSA, DARTS, pulldown, LC–MS/MS of covalently modified peptide. It is filed as binding. In general terms: In DSF a fluorescence change marks the thermal transition of the protein.

Test [2] concerns the target T2, casein kinase 2 α′ subunit (CK2α′) (Homo sapiens, UniProt P19784, R173A).
T2 construct: gene CSNK2A2
T2 sequence (P19784 1-350 R173A): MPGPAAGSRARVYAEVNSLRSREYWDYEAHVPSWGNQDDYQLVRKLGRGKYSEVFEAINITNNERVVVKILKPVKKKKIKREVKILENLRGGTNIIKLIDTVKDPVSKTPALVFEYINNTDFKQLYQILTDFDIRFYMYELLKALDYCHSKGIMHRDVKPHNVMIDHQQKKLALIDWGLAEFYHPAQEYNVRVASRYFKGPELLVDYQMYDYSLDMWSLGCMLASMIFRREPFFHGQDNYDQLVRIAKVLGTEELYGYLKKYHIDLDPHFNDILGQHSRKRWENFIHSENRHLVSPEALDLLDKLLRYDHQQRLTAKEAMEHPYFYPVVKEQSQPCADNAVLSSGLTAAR
The test is described as follows: ITC. In kind it is binding.

The structures appear in SMILES notation.

T1 sequence (P19784 whole entry): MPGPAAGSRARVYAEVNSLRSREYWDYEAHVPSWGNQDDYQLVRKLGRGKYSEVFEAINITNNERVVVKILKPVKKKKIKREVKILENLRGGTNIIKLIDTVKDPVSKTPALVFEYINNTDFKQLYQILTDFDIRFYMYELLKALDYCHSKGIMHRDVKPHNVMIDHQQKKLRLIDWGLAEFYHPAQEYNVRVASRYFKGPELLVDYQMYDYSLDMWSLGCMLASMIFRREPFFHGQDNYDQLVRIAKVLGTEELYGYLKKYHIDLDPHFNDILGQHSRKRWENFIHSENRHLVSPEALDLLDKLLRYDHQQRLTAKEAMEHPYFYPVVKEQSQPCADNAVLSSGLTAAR

In general, Kd refers to the constant that tells how readily two partners part at equilibrium. With `C[C@@H]1O[C@@H](O[C@@H]2[C@@H](O)[C@H](OCCc3ccc(O)c(O)c3)O[C@H](CO[C@@H]3O[C@H](CO)[C@@H](O)[C@H](O)[C@H]3O)[C@H]2OC(=O)/C=C/c2ccc(O)c(O)c2)[C@H](O)[C@H](O)[C@H]1O` [ECH, echinacoside], the Kd in test [1] stood at 1060 nM; in test [2], 413 nM.
